What was measured:
[1] = test system: NFκB activity of BxPC-3 cells transplanted orthotopically; assay: NFκB promoter activity in vivo, orthotopic BxPC-3 tumors; parameters: species or system mice
Description: FIGS. 3A, 3B, and 3C show the effect of cromolyn on S100P stimulated NFκB promoter activity in pancreatic cancer cells in vitro and in vivo. Panc-1 and BxPC-3 pancreatic cancer cell lines stably expressing an NFκB luciferase reporter were examined for the effects of S100P and cromolyn. […] Means and 95% confidence intervals are shown for three independent experiments performed in triplicate. *, P=0.022, †, P<0.001, and ‡, P<0.001 versus control; #, P=0.005 versus 100 nM S100P alone. […] Means and 95% confidence intervals are shown for three independent experiments performed in triplicate. *, P=0.003, †, P<0.001 versus control. […] After 1 week, tumor growth was assessed and NFκB activity was analyzed using an IVIS system (Xenogen Corp., Alameda, Calif.) after injecting mice with D-luciferin (150 mg per kg body weight) (0 time point). The mice were treated with cromolyn (5 mg per kg body weight by intraperitoneal injection), and NFκB luciferase activity was analyzed again at 24 and 48 hours. *, P=0.005 versus control. Means and 95% confidence intervals are shown for two independent experiments (n=4 mice per group). Two-tailed two-sample (unpaired for in vitro and paired for in vivo studies) Student's t-tests were used to determine P values.
To measure NFκB promoter activity in vivo, BxPC-3 cells (50,000/50 μL) stably expressing a Lenti-NFkB-luc reporter were transplanted orthotopically into the pancreas of 4-week-old male CB 17 scid mice (n=4 mice per experiment). After 1 week mice were injected with D-luciferin (150 mg per kg body weight, i.p.), and basal NFκB activity was determined using the IVIS system. Subsequently, mice were injected with cromolyn (5 mg per kg body weight, i.p.), and NFκB luciferase activity was re-analyzed after 24 and 48 hours. These experiments were performed three times.

SKOV3 ovarian cells = assay: SKOV3 ovarian cell proliferation; format: cell-based; settings: 24, 48 and 72 hours
Description: SKOV3 ovarian cells were cultured for up to three days in the presence of different concentrations of cromolyn, and cell proliferation was analyzed at 24, 48, and 72 hours. *, P<0.05.

SW480 colon cells = assay: SW480 colon cell proliferation; format: cell-based; settings: cromolyn 100 μM, up to three days
Description: SW480 colon cells were cultured for up to three days in the presence of cromolyn (100 μM), and cell proliferation was analyzed. *, P<0.05.

MPan-96 cells = assay: MPanc-96 cell invasiveness; format: cell-based, human
Panc-1 cells [2] = assay: Matrigel invasion assay, Panc-1; format: cell-based; settings: 24 hours
Description: FIGS. 2A-2D show the effect of cromolyn on pancreatic cancer cell invasion. Panc-1 and BxPC-3 cells were plated in Bio-coat matrigel and control chambers and cultured in serum-free culture media. After 24 hours non-invaded cells in the upper chamber were removed, and cells that invaded onto the lower surface of the membrane were counted from five adjacent fields. […] Data are expressed as the percent invasion through the matrigel matrix and membrane relative to migration through the control membrane. Means and 95% confidence intervals from three independent experiments performed in triplicate are shown. Two-tailed two-sample (unpaired) Student's t-tests were used to determine P values.
Panc-1 and BxPC-3 cells were seeded in BIOCOAT matrigel invasion chambers and in control chambers without matrigel (Becton-Dickinson, Bedford, Mass.) according to the manufacturer's protocol. Panc-1 cells were seeded with S100P (100 nM) with or without cromolyn (100 μM), and BxPC-3 cells were seeded with or without cromolyn (1-100 μM). Briefly, 2.0×10^5 cells in 300 μL top solution (serum-free media) were added to each chamber and allowed to invade matrigel for 24 hours at 37° C. in a 5% CO2 atmosphere. The non-invading cells on the upper surface of membrane were removed from the chambers with a cotton swab, and the invading cells on the lower surface of the membrane were fixed and stained using a Diff-Quick stain kit (Becton Dickinson, Bedford, Mass.). After two washes with water, the chambers were allowed to air dry. The numbers of invading cells in five adjacent microscope fields per membrane were counted at 20× magnification to obtain the average number of cells per field. Data are expressed as the percent invasion through the matrigel matrix and membrane relative to the migration through the control membrane. The assays were performed three times.

[3] = test system: S100s A1, B, A12, and A13; settings: previously found; cited from earlier work
PC3 prostate cells = assay: PC3 prostate cell proliferation; format: cell-based; settings: 24, 48 and 72 hours
Description: PC3 prostate cells were cultured for up to three days in the presence of different concentrations of cromolyn, and cell proliferation was analyzed at 24, 48, and 72 hours. *, P<0.05.

[4] = test system: NFκB promoter activity in BxPC-3 cells; assay: Luciferase assay for NFκB activity, BxPC-3; format: cell-based; settings: for basal NFκB activity in BxPC-3 cells, mean: 5 hours, 0 μM mean=1.4×10^6
Panc-1 cells [5] = assay: Panc-1 cell growth (MTS); format: cell-based
Description: Panc-1 pancreatic adenocarcinoma cells (1.0×10^3 cells/well) were cultured in the presence or absence of S100P (100 nM) and with or without cromolyn (100 μM), and cell proliferation was analyzed at 24, 48, and 72 hours. Means and 95% confidence intervals of three independent experiments performed in triplicate are shown. *, P=0.001, S100P alone versus S100P+cromolyn.
Panc-1 cells were plated at 1.0×10^3 cells/well and treated with platelet-derived growth factor (10 ng/mL) with or without cromolyn (100 μM), and cell proliferation was analyzed after 48 hours. Means and 95% confidence intervals of three independent experiments performed in triplicate are shown. *, P=0.004 PDGF and P=0.022 cromolyn+PDGF versus control.
Growth of Panc-1 and BxPC3 pancreatic adenocarcinoma cells was analyzed using MTS reagent (Promega, Madison, Wis.) according to the manufacturer's directions. Purified S100P (100 nM final concentration) with or without cromolyn (100 μM final concentration) was added to Panc-1 cells. Only cromolyn (0-100 μM) was added to BxPC-3 cells, which express endogenous S100P. For both cell models, 1.0×10^3 cells/well were plated in 96-well culture dishes. Cells were treated with S100P, PDGF, or cromolyn, or a combination, followed immediately by treatment with either S100P or PDGF. MTS (20 μL per well) was added to cells at various times, and the mixture was incubated for 1 hour at 37° C. Samples were then read at 490 nm (as O.D. units) on a uQuant-Microplate Spectrophotometer (Bio-Tek Services Inc., Richmond, Va.). The assay was performed three times in triplicate.

O=C(O)c1cc(=O)c2c(OCC(O)COc3cccc4oc(C(=O)O)cc(=O)c34)cccc2o1 [cromolyn, disodium 1,3-bis[(2′-carboxylatochromon-5′-yl)oxy]-2-hydroxypropane]
NFκB luciferase activity in vivo, mean ([1]; 24 h after single dose 5 mg per kg i.p., 0 h mean=9.9×10^6): 1.3×10^6 photons/sec
reduction of basal NFκB activity in vivo ([1]; 24 hours after single dose 5 mg per kg i.p.): at least 80%
NFκB activity in vivo at 48 hours ([1]; 48 hours after single dose 5 mg per kg i.p.): returned to control levels
NFκB luciferase activity in vivo, difference 0 h versus 24 h ([1]; single dose 5 mg per kg i.p.): 8.6×10^6 photons/sec
growth of SKOV3 cells (SKOV3 ovarian cells): reduced the growth
growth of SW480 cells (SW480 colon cells): reduced growth
MPanc-96 basal cell invasiveness (MPan-96 cells): inhibited basal cell invasiveness
Panc-1 cells invaded, difference S100P versus S100P+cromolyn (Panc-1 cells [2]): 48.6%
Panc-1 cells invaded, mean (Panc-1 cells [2]; S100P 100 nM + cromolyn 100 μM): 9.4%
Panc-1 basal cell invasion (Panc-1 cells [2]; no S100P): did not reduce basal cell invasion
binding to S100 proteins [3]: bind
growth of PC3 cells (PC3 prostate cells): reduced growth
basal NFκB activity in BxPC-3 cells, difference versus 0 μM ([4]; cromolyn 10 μM): 4.7×10^5 photons/sec
basal NFκB activity in BxPC-3 cells, mean ([4]; cromolyn 10 μM): 9.4×10^5 photons/sec
basal NFκB activity in BxPC-3 cells, difference versus 0 μM ([4]; cromolyn 100 μM): 5.9×10^5 photons/sec
basal NFκB activity in BxPC-3 cells, mean ([4]; cromolyn 100 μM): 8.2×10^5 photons/sec
serum stimulated Panc-1 cell proliferation (Panc-1 cells [5]): did not influence
PDGF-stimulated Panc-1 growth in presence of cromolyn (Panc-1 cells [5]; PDGF 10 ng/mL, cromolyn 100 μM, 48 hours): nor did it inhibit growth stimulation caused by PDGF
Panc-1 cell proliferation, mean (Panc-1 cells [5]; S100P 100 nM + cromolyn 100 μM): 0.56 MTS units
Panc-1 cell proliferation, difference S100P versus S100P+cromolyn (Panc-1 cells [5]; S100P 100 nM, cromolyn 100 μM): 0.37 MTS units
effects of exogenous S100P treatment on Panc-1 proliferation (Panc-1 cells [5]; S100P 100 nM, cromolyn 100 μM): completely blocked
Panc-1 cell proliferation, cromolyn treatment alone (Panc-1 cells [5]; no S100P): no effect

Reference: patent US8252807B2, “Methods of inhibiting the interaction between S100 and the receptor for advanced glycation end-products” (Board of Regents, The University of Texas System, priority 2007, dated 2012)
